From patent EP4335865A1, “INTERACTION BETWEEN A GLYCOLIPID AND MAJOR CAPSID PROTEIN (VP1) OF SHEEP POLYOMAVIRUS AND, METHODS, KITS AND USES THEREOF” (Eberhard-Karls-Universität Tübingen, priority 2022, dated 2024)

Legend:
ShPyV VP1 [1] = assay: Saturation-transfer difference (STD) NMR in solution; type: binding, sheep polyomavirus (ShPyV); conditions: 1 mM Forssman pentaose and 1 mM 6'SL in presence of 20 µM ShPyV VP1, 298 K
From the text: To assess whether the interaction of ShPyV VP1 to Forssman pentaose (FP), the glycan portion of Forssman glycolipid, also occurs in a more physiologic setting (i.e., in solution), the inventors conducted a saturation-transfer difference (STD) NMR experiment. […] Thereby, the protein resonances remain invisible. 59,60 The inventors recorded the STD-NMR resonances from a sample comprising VP1 and the oligosaccharides Forssman pentaose and 6sialyllactose (6'SL) as ligands, for which the inventors also provide reference spectra (Fig. 2B-C). […] Since excitation transfer heavily falls off with distance, VP1 is expected to contact an extensive portion of FP during the binding event.
All nuclear magnetic resonance (NMR) data were collected in a Bruker AVIII-600 MHz spectrometer equipped with a TXI-z probe head at 298 K. The inventors performed the experiments using 3 mm NMR tubes. Samples were provided in 99 % D2O-PBS containing 20 mM KH2PO4/K2HPO4 (pH 7.4) and 150 mM NaCl. Initially, ^1H reference spectra of isolate oligosaccharides samples (4 mM Forssman pentaose and 2 mM 6'SL, respectively) were recorded. Subsequently, the ^1H resonances of a sample comprising 1 mM Forssman pentaose and 1 mM 6'SL in presence of 20 µM ShPyV VP1 were collected. From the same sample, the saturation difference transfer (STD) NMR experiment was performed. […]

[2] = tested on: major capsid protein VP1 of sheep polyomavirus (ShPyV); assay: Glycan microarray screening of recombinant VP1; type: binding; conditions: broad spectrum glycan microarray of over 900 different carbohydrate structures
From the text: To identify potential attachment factors of sheep polyomavirus (ShPyV), the inventors subjected the recombinantly expressed major capsid protein VP1 to broad spectrum glycan microarray screening of over 900 different carbohydrate structures (Fig. 1A). […] Among the four strongest reliable signals in the glycan array, which are depicted in figure 1, two stem from glycans carrying α→6 linked sialic acids, which are 9-O-Acetyl-N-acetylneuraminic acid (Neu5,9Ac) and N-glycolyl-neuraminic acid (Neu5Gc).
Among all carbohydrates in the glycan array the Forssman glycolipid is the only probe that features the Forssman disaccharide GalNAcα→3GalNAcβ.

ShPyV VP1 [3] = assay: Derivatization of VP1 crystals with oligosaccharides and structure solution; type: binding, sheep polyomavirus (ShPyV); conditions: crystals soaked with oligosaccharide (10 mM globo-N-tetraose)
From the text: The inventors presume that the Forssman disaccharide GalNAcα^5→3GalNAc^4, which promotes the hydrophobic interactions to VP1, is the main determinant for tropism. To corroborate this hypothesis, the inventors derivatized ShPyV VP1 crystals with globo-N-tetraose (Gb4), the glycan of the globoseries P antigen and molecular precursor of FP, and determined the structure of the complex (Table S2).
Additionally, the structural elucidation of the VP1-FP complex allows for the superposition of the epitopes of other aGalNAc antigens such as A (GalNAcα→3(Fucα→2)Gal-R) and Tn (GalNAcα→O-Ser/Thr) into the identified Forssman binding site.
Purified ShPyV VP1 was concentrated to 3.5 mg/ml. Crystallization droplets were set up comprising 1 µl protein and 1 µl reservoir solution (150 mM KSCN and 20 % (w/v) PEG 3,350). The droplets were equilibrated against the 500 µl reservoir using the hanging drop vapor diffusion method at 20 °C. For ligand derivatization, VP1 crystals were soaked in crystallization solution supplemented with the respective oligosaccharides (10 mM FA pentaose, 10 mM globo-N-tetraose, 5 mM FA pentaose + 20 mM 3'SLN, and 5 mM pentaose + 20 mM 6'SLN), at 20 °C for half an hour. Prior to flash freezing, crystals were transferred to soaking solutions supplemented with 20 % (v/v) MPD for cryo-protection. X-ray diffraction experiments were performed using the Swiss Light Source (SLS) beamline X06DA at the PSI (Villigen, Switzerland). Data were collected at a wavelength of 1 Å and an excitation time and angle of 0.1 s and 0.1° per image, respectively. All carbohydrates were purchased from Carbosynth, UK.
X-ray diffraction images were integrated and scaled using XDS software. For each data set, 2000-3000 reflections were reserved as a test set for structure validation. Phases were determined by molecular replacement using the native sheep polyomavirus VP1 structure as search model (PDB ID 6Y61) in PHASER (CCP4). […]

[4] = tested on: FORS+ cell binding by HPA; assay: Inhibition assay of HPA binding to ovine blood cells; type: cell-based, sheep; conditions: exceeding amounts of trisaccharide inhibitor (Fig. 5C)
Description: The inventors also examine the engagement of FORS- human erythrocytes by ShPyV VP1 and compare the results to HPA, which is a commonly used indicator for aberrant glycosylation in cancerogenesis. […] In contrast, FORS+ cell binding by HPA is inhibited by exceeding amounts of both F-tri and A-tri (Fig. 5C).
Erythrocytes from defibrinated blood were diluted into FACS buffer (1× PBS + 2 % FCS) to a density of 10×10^6 cells / mL. Samples of 1×10^6 cells were incubated with labeled protein at room temperature for 30 minutes with occasional shaking. Samples were then directly transferred to the flow cytometer (LSR II, BD Biosciences). Singlet cells were gated and the fluorescent population was captured at […]. M1/87-FITC (Santa Cruz Biotechnology) and HPA Alexa Fluor™ 488 conjugate (Invitrogen), respectively were used as references. Defibrinated sheep and bovine blood were purchased from TCS Biosciences Ltd and BioTrading Benelux B.V., respectively.

ShPyV VP1 [5] = assay: Crystallographic affinity determination (glycan dilution series in VP1 crystals); type: binding, sheep polyomavirus (ShPyV); conditions: approximate; integrated FP electron density vs concentration, Michaelis-Menten approach; 10 mM down to 0.0195 mM FP; read-out: dissociation constant between VP1 and FP (crystallographic, Kdc)
From the text: Due to the costliness of Forssman glycans, conventional biophysical affinity determination techniques were not applied. To still establish an approximate dissociation constant value, the inventors derivatize isomorphous ShPyV VP1 crystals with serially diluted Forssman pentaose (FP) solution and collect the diffraction data.
To approximate the affinity towards FA pentaose (FP) the inventors prepared a glycan dilution series in VP1 crystals, an approach that was successfully utilized in the past. [16,23]_VP1 crystals were grown as described above. The reference soaking solution (10 mM FP in 150 mM KSCN, 20 % (w/v) PEG 3,350 and 20 % (v/v) MPD) was diluted using 1:2 steps down to a final concentration of 0.0195 mM. Distinct crystals and equal soaking times were used for the parallel derivatization with FP at the different concentrations. Data collection was performed as described above. For processing, the unit cell constants of all data sets were treated as isomorphous. All diffraction intensities were scaled against the 10 mM FP reference data set using scaleit. A single structure solution was sufficient for all data sets. A VP1 model lacking all water and carbohydrate atoms, and a control tripeptide (AA 143-145) in all chains, was used for simulated annealing refinement (Phenix). […]

[6] = target: human Gal-9 carbohydrate recognition domain (CRD) (Homo sapiens, UniProt O00182); conditions: carbohydrate library screening, reference 62; cited from earlier work
Chain of human Gal-9 carbohydrate recognition domain (CRD) (O00182 1-148 limits assumed): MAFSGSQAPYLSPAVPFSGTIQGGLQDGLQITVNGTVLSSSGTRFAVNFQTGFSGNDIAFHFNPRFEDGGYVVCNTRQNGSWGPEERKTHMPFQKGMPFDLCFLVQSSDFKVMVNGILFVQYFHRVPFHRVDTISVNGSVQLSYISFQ

Compound | glycan array response (binding to VP1) [2] | also measured
CC(=O)N[C@H]1[C@H]([C@H](O)[C@H](O)CO)O[C@@](OC[C@H]2O[C@@H](O[C@H]3[C@H](O)[C@@H](O)[C@H](O)O[C@@H]3CO)[C@H](O)[C@@H](O)[C@H]2O)(C(=O)O)C[C@@H]1O [6'SL, 6'sialyllactose] |  | STD-NMR binding to VP1 (ShPyV VP1 [1]): signal of a third methyl group in the STD-NMR spectrum manifests as the only transferred resonance
CC(=O)N[C@H]1[C@H]([C@H](O)[C@H](O)CO)O[C@](OC[C@H]2O[C@@H](O[C@H]3[C@H](O)[C@@H](NC(C)=O)C(O)O[C@@H]3CO)[C@H](O)[C@@H](O)[C@H]2O)(C(=O)O)C[C@@H]1O (stereo partly shown) [6'sialyllactosamine] | relatively weak | 
CC(=O)N[C@H]1[C@@H](O[C@H]2[C@@H](O)[C@@H](CO)O[C@@H](O)[C@@H]2O[C@@H]2O[C@@H](C)[C@@H](O)[C@@H](O)[C@@H]2O)O[C@H](CO)[C@H](O)[C@@H]1O [A antigen trisaccharide] |  | ligand electron density / binding in derivatized VP1 crystals (ShPyV VP1 [3]): unliganded VP1 pentamers; inhibition of FORS+ cell binding by HPA [4]: inhibited
CC(=O)N[C@H]1[C@@H](O[C@H]2[C@@H](O)[C@@H](CO)O[C@@H](O[C@H]3[C@@H](O)[C@@H](CO)O[C@H](O[C@@H]4[C@H](O)[C@@H](O)[C@H](O[C@H]5[C@H](O)[C@@H](O)C(O)O[C@@H]5CO)O[C@@H]4CO)[C@@H]3O)[C@@H]2NC(C)=O)O[C@H](CO)[C@H](O)[C@@H]1O (stereo partly shown) [FP, GalNAcα^5→3GalNAcβ^4→3Galα^3→4Galβ^2→4Glc^1] |  | Kd (ShPyV VP1 [5]): ~38.2 µM; Kd [6]: 0.3 µM; STD-NMR binding to VP1 (ShPyV VP1 [1]): binding of FP to VP1
CC(=O)N[C@H]1C(O)O[C@H](CO[C@@H]2O[C@H](CO)[C@H](O)[C@H](O)[C@H]2O)[C@H](O)[C@@H]1O (stereo partly shown) [Galβ-6GalNAc disaccharide, Galβ-6GalNAc] | relatively strong signal | 
CC(=O)NC1C(OC2C(O)C(CO)OC(OC3C(CO)OC(OC4C(CO)OC(O)C(O)C4O)C(O)C3O)C2O)OC(CO)C(O)C1O (stereo not shown) [Gb4, globo-N-tetraose] |  | ligand electron density / binding in derivatized VP1 crystals (ShPyV VP1 [3]): negligible binding affinity
GD3 tetraose | relatively weak | 
GM1 pentaose | relatively weak | 
GTic oligosaccharide | relatively weak | 
GalNAcα1→3GalNAcβ1→3Galα1→4Galβ1→4Glcβ1->1Cer [Forssman glycolipid] | surprisingly strong response | 
GalNAcα→3(Fucα→2)Gal-R [A antigen] | no significant binding | 
GalNAcα→O-Ser/Thr [Tn antigen] | no significant binding | 
Galβ→3-Tn [T antigen] |  | ligand electron density / binding in derivatized VP1 crystals (ShPyV VP1 [3]): unliganded VP1 pentamers
